Measured values reported in paper PMC9181795, “Ibuprofen Favors Binding of Amyloid-β Peptide to Its Depot, Serum Albumin” (International Journal of Molecular Sciences, 2022).
Read-outs that look alike come from different tables or passages of the source.

Legend:
[1] = test system: Aβ40(A21G); test: ThT fluorescence assay, Aβ40(A21G) fibrillation; format: biochemical, human; conditions: 20 µM IBU, 20 µM Aβ40(A21G), no HSA, 30 °C, pH 7.4
Experimental: ThT fluorescence emission measurements were carried out using a BioTek Synergy H1 multimode microplate reader and Greiner Bio-One non-binding microplates #781906 mainly as described in ref. [11]. […] ThT fluorescence was excited at 440 nm and emission at 485 nm was measured for 190 h every 30 min, with orbital shaking prior to each measurement. […] The lag time, tlag, is calculated as (t0 − 2/kapp).

[2] = set-up: method as in PMID 4202799; conditions: at therapeutic levels; ref [24]; cited from earlier work
[3] = set-up: method as in doi:10.3109/03639048309039887, PMID 10714613; conditions: pH values above 7; ref [22],[23]; cited from earlier work
[4] = test system: mouse models of AD; set-up: method as in 6 sources, ref [28]–[35] = [28]; PMID 15817521; doi:10.1093/brain/awh452; 28. Heneka M.T. Sastre M. Dumitrescu-Ozimek L. Hanke A. Dewachter I. Kuiperi C. O’Banion K. Klockgether T. Van Leuven F. Landreth G.E. Acute treatment with the PPARgamma agonist pioglitazone and ibupr || [29]; PMID 18374906; doi:10.1016/j.brainres.2008.01.095; 29. McKee A.C. Carreras I. Hossain L. Ryu H. Klein W.L. Oddo S. LaFerla F.M. Jenkins B.G. Kowall N.W. Dedeoglu A. Ibuprofen reduces Abeta, hyperphosphorylated tau and memory deficits in Alzheimer mice || [30]; PMID 19679126; doi:10.1016/j.expneurol.2009.07.032; 30. Choi J.K. Jenkins B.G. Carreras I. Kaymakcalan S. Cormier K. Kowall N.W. Dedeoglu A. Anti-inflammatory treatment in AD mice protects against neuronal pathology Exp. Neurol. 2010 223 377 384 10.101 || [31]; PMID 27190010; doi:10.1093/brain/aww117; 31. Woodling N.S. Colas D. Wang Q. Minhas P. Panchal M. Liang X. Mhatre S.D. Brown H. Ko N. Zagol-Ikapitte I. Cyclooxygenase inhibition targets neurons to prevent early behavioural decline in Alzheime || [32]; PMID 12930788; doi:10.1523/JNEUROSCI.23-20-07504.2003; 32. Yan Q. Zhang J. Liu H. Babu-Khan S. Vassar R. Biere A.L. Citron M. Landreth G. Anti-inflammatory drug therapy alters beta-amyloid processing and deposition in an animal model of Alzheimer’s diseas ||| ref [28],[29],[30],[32],[33],[34],[35] = [28]; PMID 15817521; doi:10.1093/brain/awh452; 28. Heneka M.T. Sastre M. Dumitrescu-Ozimek L. Hanke A. Dewachter I. Kuiperi C. O’Banion K. Klockgether T. Van Leuven F. Landreth G.E. Acute treatment with the PPARgamma agonist pioglitazone and ibupr || [29]; PMID 18374906; doi:10.1016/j.brainres.2008.01.095; 29. McKee A.C. Carreras I. Hossain L. Ryu H. Klein W.L. Oddo S. LaFerla F.M. Jenkins B.G. Kowall N.W. Dedeoglu A. Ibuprofen reduces Abeta, hyperphosphorylated tau and memory deficits in Alzheimer mice || [30]; PMID 19679126; doi:10.1016/j.expneurol.2009.07.032; 30. Choi J.K. Jenkins B.G. Carreras I. Kaymakcalan S. Cormier K. Kowall N.W. Dedeoglu A. Anti-inflammatory treatment in AD mice protects against neuronal pathology Exp. Neurol. 2010 223 377 384 10.101 || [32]; PMID 12930788; doi:10.1523/JNEUROSCI.23-20-07504.2003; 32. Yan Q. Zhang J. Liu H. Babu-Khan S. Vassar R. Biere A.L. Citron M. Landreth G. Anti-inflammatory drug therapy alters beta-amyloid processing and deposition in an animal model of Alzheimer’s diseas || [33]; PMID 10908610; doi:10.1523/JNEUROSCI.20-15-05709.2000; 33. Lim G.P. Yang F. Chu T. Chen P. Beech W. Teter B. Tran T. Ubeda O. Ashe K.H. Frautschy S.A. Ibuprofen suppresses plaque pathology and inflammation in a mouse model for Alzheimer’s disease J. Neuro ||| ref [28] = [28]; PMID 15817521; doi:10.1093/brain/awh452; 28. Heneka M.T. Sastre M. Dumitrescu-Ozimek L. Hanke A. Dewachter I. Kuiperi C. O’Banion K. Klockgether T. Van Leuven F. Landreth G.E. Acute treatment with the PPARgamma agonist pioglitazone and ibupr ||| ref [32] = [32]; PMID 12930788; doi:10.1523/JNEUROSCI.23-20-07504.2003; 32. Yan Q. Zhang J. Liu H. Babu-Khan S. Vassar R. Biere A.L. Citron M. Landreth G. Anti-inflammatory drug therapy alters beta-amyloid processing and deposition in an animal model of Alzheimer’s diseas ||| ref [33],[34] = [33]; PMID 10908610; doi:10.1523/JNEUROSCI.20-15-05709.2000; 33. Lim G.P. Yang F. Chu T. Chen P. Beech W. Teter B. Tran T. Ubeda O. Ashe K.H. Frautschy S.A. Ibuprofen suppresses plaque pathology and inflammation in a mouse model for Alzheimer’s disease J. Neuro || [34]; PMID 15688088; doi:10.1038/sj.npp.1300668; 34. Morihara T. Teter B. Yang F. Lim G.P. Boudinot S. Boudinot F.D. Frautschy S.A. Cole G.M. Ibuprofen suppresses interleukin-1beta induction of pro-amyloidogenic alpha1-antichymotrypsin to ameliorate ||| ...; conditions: cited from earlier work
[5] = test system: HSA–Aβ interaction
Experimental: To ensure the monomeric state of Aβ, the non-covalently bound Aβ molecules were thoroughly washed from the chip surface until stabilization of the SPR signal using several water solutions: 2% sodium dodecyl sulfate (SDS), 100 mM HCl, 20 mM ethylenediaminetetraacetic acid (EDTA) pH 8.0 with 1% SDS.
The freeze-dried Aβ samples were dissolved in neat TFA at a concentration of 0.5–1 mg/mL, followed by sonication for 30 s and TFA evaporation using an Eppendorf Concentrator plus. The dried Aβ samples were dissolved in DMSO at a concentration of 2 mg/mL and stored at −20 °C.
The rest of the activated amine groups on the chip surface were blocked by 1 M ethanolamine solution. […] The double-referenced SPR sensograms were analyzed using the heterogeneous ligand model (Equation (1)), assuming presence of two populations of a ligand (L1 and L2) that bind an analyte molecule (A):(1) ka1L1+ A⇌L1Akd1Kd1 ka2L2+ A⇌L2Akd2Kd2 where ka and kd refer to kinetic association and dissociation constants, respectively; Kd1 and Kd2 are equilibrium dissociation constants. The equilibrium and kinetic dissociation/association constants were evaluated for each analyte concentration using Bio-Rad ProteOn Manager™ v.3.1 software (Hercules, CA, USA), followed by averaging of the resulting values (n = 3–4; standard deviations are indicated).

SMILES: CC(C)Cc1ccc(C(C)C(=O)O)cc1 (stereo not shown) [IBU, 2-[4-(2-methylpropyl)phenyl]propanoic acid]
- suppression of fibrillation by IBU alone [1]: does not induce statistically significant suppression of the fibrillation process
- bound to blood plasma proteins [2]: 99%
- water solubility [3]: 100 to 1000 mM
- neuroprotective effects of IBU intake ([4]; mouse models of AD, ref [28]–[35]): suppression of the inflammatory processes, reduction in the Aβ sprand tau protein depositions, and lowering of the cognitive and memory deficits
- mechanism ascribed to reduced Aβ deposition ([4]; ref [28]): downregulation of β-secretase 1 and COX-2
- mechanism ascribed to reduced Aβ deposition ([4]; ref [32]): reduction in Aβ42 production
- mechanism ascribed to reduced Aβ deposition ([4]; ref [33],[34]): inhibition of interleukin-1β and its downstream target α1-antichymotrypsin
- mechanism ascribed to reduced Aβ deposition ([4]; ref [35]): attenuation of NADPH oxidase activation and reactive oxygen species production
- brain deposition of Aβ upon treatment with IBU ([4]; several mouse AD models, ref [28],[29],[30],[32],[33],[34],[35]): reduction in brain deposition of Aβ
- effect of IBU on HSA affinity to Aβ compared with serotonin [5]: lower than the effect for serotonin
